Results: US20260226064A1, “POLYCYCLIC COMPOUND FOR TREATING NEUROLOGICAL DISEASES AND TUMORS” (Shanghai Institute of Organic Chemistry, Chinese Academy of …, priority 2023, published 2026)
Read-outs that look alike come from different tables or passages of the source.

Assays:
[1] = tested on: acetylated microtubule in HEK293T cells; test: Microtubule-Stabilizing Activity Assay (acetylated microtubule immunoblot, HEK293T, colchicine challenge); format: cell-based; settings: 1 h pre-incubation, then colchicine 1 μM 3 h, relative to CNDR-51657 at 500 nM = 1.00; for Microtubule-Stabilizing Activity 50 nM: compound 50 nM; for Microtubule-Stabilizing Activity 500 nM: compound 500 nM
How it was run: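 HEK293T cells pretreated with compound or DMSO 1 h at 37 °C, then challenged with 1 μM colchicine for 3 h. Lysates (RIPA plus 1 μM trichostatin A) immunoblotted for acetylated and α-tubulin, quantified by densitometry. Activity expressed relative to CNDR-51657 at 500 nM set as 1.00.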

[2] = Mouse Oral Pharmacokinetic Study; format: in vivo; settings: mouse, male CD1 mice, oral gavage 10 mg/kg; for Kp at 4 h: brain/plasma, read-out: Cbrain/Cplasma; for AUC(0-t) / Cmax / Tmax: plasma; for AUC(0-t): 0-4 h, read-out: AUC0-4h; for Cmax: read-out: Cmax; for Tmax: read-out: Tmax
Method: Healthy male CD1 mice were used as experimental animals. The drug was administered by oral gavage at a dose of 10 mg/kg with a dosing volume of 10 mL/kg. Drug preparation: 10 mg of the compound was placed in 10 mL of 50% PEG400 or 20% HPb-cyclodextrin, ground and shaken to ensure uniform distribution of the compound in small particle size, followed by oral administration. Blood samples were collected at 30 min, 1 h, 2 h, and 4 h post-dose, and brain tissues were sampled at 4 h. EDTA dipotassium salt was added to the blood samples, and plasma was obtained after centrifugation. The supernatant was analyzed after dilution with 5 volumes of acetonitrile and centrifugation. The brain tissue homogenate was diluted with 3.5 volumes of acetonitrile, centrifuged, and the supernatant was collected for analysis. The samples were then analyzed by liquid chromatography-tandem mass spectrometry (LC-MS/MS): the instrument was AB Sciex 3500; the mobile phase consisted of 0.1% formic acid in water (A)/0.1% formic acid in acetonitrile (B), with gradient elution.

[3] = brain tissue at 4 h, read-out: Cbrain@4h
[4] = plasma at 4 h, read-out: Cpasma@4h

Row | SMILES | Microtubule-Stabilizing Activity 50 nM [1] | Microtubule-Stabilizing Activity 500 nM [1] | Kp at 4 h [2] | concentration at 4 h [2, 3] [ng/mL] | concentration at 4 h [2, 4] [ng/mL] | AUC(0-t) [2] [ng·h/mL] | Cmax [2] [ng/mL] | Tmax [2] [min]
1 | C[C@H](Nc1c(-c2c(F)cc(OCC3[C@H]4CNC[C@@H]34)cc2F)c(Cl)nc2ncnn12)C(F)(F)F (stereo partly drawn) [Example 24, 6-(4-(((1R,5S,6r)-3-Azabicyclo[3.1.0]hex-6-yl)methoxy)-2,6-difluorophenyl)-5-chloro-N—((S)-1,1,1-trifluoropropan-2-yl)-[1,2,4]triazolo[1,5-a]pyrimidin-7-amine] | 0.86 | 1.63 | 0.17 | 147 | 874 | 5960 | 2640 | 45
2 | CN1C[C@@H]2[C@@H](/C=C/c3cc(F)c(-c4c(Cl)nc5ncnn5c4NCC(F)(F)F)c(F)c3)[C@@H]2C1 [Example 58] | 1.09 | 1.63 | 3.58 | 222 | 62 | 368 | 115 | 60
3 | C[C@H](Nc1c(-c2c(F)cc(OCC3[C@H]4CN(C)C[C@@H]34)cc2F)c(Cl)nc2ncnn12)C(F)(F)F (stereo partly drawn) [Example 25, 5-Chloro-6-(2,6-difluoro-4-(((1R,5S,6r)-3-methyl-3-azabicyclo[3.1.0]hexan-6-yl)methoxy)phenyl)-N—((S)-1,1,1-trifluoropropan-2-yl)-[1,2,4]triazolo[1,5-a]pyrimidin-7-amine] | 0.96 | 1.31 | 1.45 | 198 | 137 | 939 | 399 | 45
4 | C[C@@H](Nc1c(-c2c(F)cc(C#C[C@@H]3[C@H]4CN(C)C[C@@H]34)cc2F)c(Cl)nc2ncnn12)C1CCC1 [Example 46, 5-Chloro-N—((R)-1-cyclobutylethyl)-6-(2,6-difluoro-4-(((1R,5S,6s)-3-methyl-3-azabicyclo[3.1.0]hexan-6-yl)ethynyl)phenyl)-[1,2,4]triazolo[1,5-a]pyrimidin-7-amine] | 1.76 | 1.44 | 1.09 | 356 | 325 | 1600 | 572 | 30
5 | CC(C)[C@@H](C)Nc1c(-c2c(F)cc(C#C[C@@H]3[C@H]4CN(C)C[C@@H]34)cc2F)c(Cl)nc2ncnn12 [Example 55, 5-Chloro-6-(2,6-difluoro-4-(((1R,5S,6s)-3-methyl-3-azabicyclo[3.1.0]hexan-6-yl)ethynyl)phenyl)-N—((R)-3-methylbutan-2-yl)-[1,2,4]triazolo[1,5-a]pyrimidin-7-amine] | 1.8 | 1.62 | 1.22 | 375 | 306 | 1450 | 496 | 30
6 | CNC1CC2(C1)CC(Oc1cc(F)c(-c3c(Cl)nc4ncnn4c3N[C@@H](C)C(F)(F)F)c(F)c1)C2 (stereo partly drawn) [Example 11, (S)-5-Chloro-6-(2,6-difluoro-4-((6-(methylamino)spiro[3.3]heptan-2-yl)oxy)phenyl)-N-(1,1,1-trifluoropropan-2-yl)-[1,2,4]triazolo[1,5-a]pyrimidin-7-amine] | 0.60 | 1.45 | 0.11 | 252 | 2200 | 11200 | 4140 | 45
7 | Cc1nc2ncnn2c(NCC(F)(F)F)c1-c1c(F)cc(OC[C@@H]2[C@H]3CN(C)C[C@@H]23)cc1F [Example 60] | 0.95 | 1.24 | 1.32 | 62 | 47 | 696 | 379 | 30
